From patent US20240208905A1, “ABIRATERONE DERIVATIVE, PREPARATION AND APPLICATION THEREOF” (GUANGDONG ZHONGKE MEDICINE R&D LTD., priority 2021, published 2024)
Marks after values point to notes of the source that are not given here.

Tests used:
[1] = system: experimental rabbit ear acne; test: Pharmacodynamics evaluation of acne: coal tar rabbit ear acne model, HE pathology; type: in vivo, Japanese big-ear white rabbits; conditions: 0.01% ointment, 1 g per animal, once a day, two weeks, 10 rabbits per group; for Degree of keratinization: number of rabbits graded + / Degree of keratinization: number of rabbits graded ++ / Degree of keratinization: number of rabbits graded +++ / Degree of keratinization: number of rabbits graded −: hair follicle keratinization
Source text: There are 140 male healthy Japanese big-ear white rabbits, weighing 2.0-2.5 kg. After one week of adaptive rearing, 10 rabbits were randomly selected according to their body weights as the normal control group, and the remaining 130 rabbits were coated with coal tar once a day in the area of 2×2 cm2 at 2 cm outside the opening of ear canal, with a thickness of about 0.5 mm (Before coating, the coal tar was heated to melt in a water bath, and the last coal tar shell was removed before each application; the rabbits in normal control group were coated with olive oil by the same method as before). After 3 weeks for modeling, according to the degree of skin lesion, 130 rabbits were randomly divided into 13 groups which is model control group, Example 1 compound (1 group), Example 2 compound (2 groups), Example 3 compound (3 groups), Example 4 (4 groups), Example 5 (5 groups), Example 6 (6 groups), Example 7 (7 groups), Example 8 (8 groups), Example 9 (9 groups), Example 10 (10 groups), Example 11 (11 groups), Example 12 (12 groups), Example 13 (13 groups), and each group had 10 rabbits. After grouping, each dose group were continued to be coated coal tar in the morning, and after the coal tar was removed in the afternoon, apply the test drug or control drug (both 0.01%/10 g ointment, apply 1 g ointment per animal) on the lesion, once a day, for two consecutive weeks (the model control group and the normal control group were coated with the same amount of matrix). 24 hours after the last administration, the animals were sacrificed by air embolism, and the skin (full thickness) of the ear where the administration was administered was taken, fixed with 4% paraformaldehyde solution, stained with HE, and routinely observed for pathology.1.

[2] = system: human prostate cancer cell VCaP nude mouse transplanted tumor model; test: Prostate tumor pharmacodynamics experiment: VCaP nude mouse transplanted tumor model; type: in vivo, BALB/c nude mice; conditions: 0.5 mmol·kg−1 i.g. QD; for Tumor volume, day 25: * P<0.05, ** P<0.01 vs solvent control; for inhibition in vivo at 500 µmol/kg: Mus musculus, VCaP, po, 600 h, read-out: Growth Inhibition rate (GI)
Protocol: Male BALB/c nude mice (number: 90; age: 6-7 weeks) purchased from Beijing Vital River Laboratory Animal Technology Co., Ltd., were raised in the SPF animal room of Suzhou Shengsu New Drug Development Co., Ltd. at a temperature of 20˜25° C. and a relative humidity 40%˜70%, and bright and dark illumination for 12 hours respectively; these mice were allowed to drink and eat freely. After normal feeding for about 6 days, mice with good physical signs can be selected for this experiment after veterinary inspection. Before grouping, animals were identified at their base of tail using marking pens. After grouping, each animal was identified by ear clipping.
Human prostate cancer cells VCaP were obtained from the Shanghai Cell Bank of the Chinese Academy of Sciences (CAS, cryopreserved in liquid nitrogen in our laboratory).
Under a culture condition of 5% CO2 and 37° C., VCaP cells were routinely cultured in DMEM medium containing 10% fetal bovine serum. Digested with 0.25% trypsin and passaged, VCaP cells were passaged 2-3 times per week based on cell growth, with a passage ratio of 1:3 to 1:5.
The VCaP cells in logarithmic growth phase were collected, counted, and resuspended in 50% DMEM basal medium and 50% Matrigel Matrix, and the cell concentration was adjust to 5×10^7 cells/mL; the cells was placed in an ice box; Cell suspension was aspirated with a 1 ml syringe, and injected subcutaneously to the anterior right armpit of nude mice. Each animal was inoculated with 200 μL (1×10^7 cells/mouse), and a VCaP transplant tumor model in nude mice was established. Regularly observe the status of mice, measure the diameter of the tumor with an electronic vernier caliper, input the data into Excel spreadsheets, calculate the tumor volume, and monitor its growth. When the tumor volume reached 100-300 mm3, 60 mice with good health and similar tumor volume were selected, and divided into 10 groups (n=6) based on the tumor volume using random block method, while ensuring that the average body weight of each group remained consistent as much as possible. The day of grouping was taken as the first day of the experiment (D1). The tumor diameters were measured twice a week after the initiation of the experiment, the tumor volumes were calculated, and the body weights of the animals were weighed and recorded at the same time.
Preparation of DMSO&PEG400&PG (v:v:v, 10:60:30): appropriate volumes of DMSO, PEG400 and PG were drawed respectively, and mixed well. The ratio of DMSO, PEG400 and PG in the mixture is 10:60:30 (v:v:v), and this mixture is used as a blank solvent and stored at room temperature.
Appropriate amount of the test compound was weighed and added into a glass bottle, appropriate volume of solvent DMSO was added, be treated with vortex ultrasonication, then appropriate volumes of PEG400 and PG were added in turn, be vortex mixed to obtain a dosing formulation with a final concentration of 0.05M. The dosing formulation was stored in refrigerator at 2-8° C. after subpackaging, and was stirred evenly with vortex before each administration. The dosing formulation was prepared every 7 days, and was subpackaged and stored in refrigerator at 4° C.
Appropriate amount of ZONK1901-10 was weighed and added into a glass bottle, appropriate volume of corn oil, was added, be treated with vortex ultrasonication evenly, a dosing formulation with a final concentration of 19.58 mg·mL-1 (0.05 M) was obtained.

[3] = Pharmacokinetic experiment after intragastric administration in mice (LC-MS/MS of ZONK1901-1 and ZONK1901-2)
Protocol: To study the pharmacokinetic properties after intragastric administration in mice.
Each mouse was collected at 2-3 discrete points in time.
An LC-MS/MS analysis method for determining the concentrations of ZONK 1901-1 and ZONK1901-2 in mouse whole blood was established. At the same time, the obtained plasma concentration data was calculated by using the pharmacokinetic processing software Pharsight Phoenix WinNonlin8.0 non-compartmental model to calculate relevant pharmacokinetic parameters.

[4] = system: tumor model mice inoculated with Vcap (human prostate cancer cells); conditions: intraperitoneal injections, cited from earlier work
[5] = metabolite ZONK1901-1 (M1) in mouse blood after intragastric administration of the group's compound
[6] = metabolite ZONK1901-2 (M2) in mouse blood after intragastric administration of the group's compound

Structure (SMILES)	degree of inflammatory cell infiltration: number of rabbits graded + [1]	degree of inflammatory cell infiltration: number of rabbits graded ++ [1]	degree of inflammatory cell infiltration: number of rabbits graded +++ [1]	degree of inflammatory cell infiltration: number of rabbits graded − [1]	Degree of keratinization: number of rabbits graded + [1]	Degree of keratinization: number of rabbits graded ++ [1]	Degree of keratinization: number of rabbits graded +++ [1]	Degree of keratinization: number of rabbits graded − [1]	Tumor volume, day 25 ([2]; day 25, n=6)	inhibition in vivo at 500 µmol/kg ([2]; day 25, vs solvent control) [%]	also measured
CNCCC(=O)ON=C1C=C2CC[C@H]3[C@H](CC[C@]4(C)C(c5cccnc5)=CC[C@@H]34)[C@@]2(C)CC1 [Example 6, (8S,9S,10R,13S,14S)-10,13-Dimethyl-17-(pyridin-3-yl) -6,7,8,9,10,11,12,13,14,15-decahydro-1H-cyclopenta[a]phenanthrenyl-3(2H)-one O-(3-(methylamino)propionyl)oxime]	6	3	1	0	5	5	0	0	405 ± 15 * mm3	–	Tumor volume, Day 1 ([2]; Day 1 (day of grouping, start of dosing), n=6): 227 ± 21^ mm3; Growth Inhibition rate (GI) ([2]; day 25, vs solvent control): 80.7% **; AUC0-inf [3, 5]: 2.396 µM·h; AUC0-t [3, 5]: 2.103 µM·h; Cmax [3, 5]: 679 nM; Tmax [3, 5]: 2.00 h; t1/2 [3, 5]: 2.73 h; AUC0-inf [3, 6]: 2.287 µM·h; AUC0-t [3, 6]: 2.237 µM·h; Cmax [3, 6]: 421 nM; Tmax [3, 6]: 2.00 h; t1/2 [3, 6]: 3.17 h
CC(=O)O[C@H]1CC[C@@]2(C)C(=CC[C@@H]3[C@@H]2CC[C@]2(C)C(c4cccnc4)=CC[C@@H]32)C1 [ZONK1901-10, abiraterone acetate, reference compound]	–	–	–	–	–	–	–	–	765 ± 46 * mm3	44.1	Autopsy finding on absorption of the drug [4]: some of the drugs were not absorbed; Adverse findings in tumor model mice ([4]; some mice): developed abdominal distension and died; M2 (ZONK1901-2) in the metabolites ([3]; intragastric administration): not detected
CN(C)C(=O)ON=C1C=C2CC[C@H]3[C@H](CC[C@]4(C)C(c5cccnc5)=CC[C@@H]34)[C@@]2(C)CC1 [Example 2, (8S,9S,10R,13S,14S)-10,13-Dimethyl-17-(pyridin-3-yl) 6,7,8,9,10,11,12,13,14,15-decahydro-1H-cyclopenta[a]phenanthrene-3(2H)-one O-dimethylcarbamoyl oxime]	4	4	2	0	5	5	0	0	393 ± 25 ** mm3	81.4	–
Cc1ccccc1C(=O)ON=C1C=C2CC[C@H]3[C@H](CC[C@]4(C)C(c5cccnc5)=CC[C@@H]34)[C@@]2(C)CC1 [Example 5, (8S,9S,10R,13S,14S)-10,13-Dimethyl-17-(pyridin-3-yl) -6,7,8,9,10,11,12,13,14,15-decahydro-1H-cyclopenta[a]phenanthrenyl-3(2H)-one O-(2-methylbenzoyl)oxime]	6	3	1	0	6	4	0	0	410 ± 44 ** mm3	85.2	–
